Laboratory results: paper PMC12552937, “Kinetic mechanisms of electron bifurcation with electron transfer flavoprotein, NADH, butyryl-CoA dehydrogenase, and ferredoxin reveal a semiquinone cycle” (The Journal of Biological Chemistry, 2025)

What was measured:
[1] = target: T1, EtfAB (electron transfer flavoprotein) (Acidaminococcus fermentans, UniProt D2RIQ2); assay: anaerobic stopped-flow, beta-FAD reduction and charge-transfer complex at […] nm; assay type: biochemical; details: 40 μM EtfAB + 40 μM NADH, 50 mM potassium phosphate pH 7.0, 4 °C; beta-FAD site
T1 construct: gene Acfer_0555; recombinant from E. coli, pET-11a, no tag told; heterodimer with alpha-FAD (EtfA) and beta-FAD (EtfB); with Electron transfer flavoprotein subunit alpha
T1 sequence (D2RIQ2 1-263): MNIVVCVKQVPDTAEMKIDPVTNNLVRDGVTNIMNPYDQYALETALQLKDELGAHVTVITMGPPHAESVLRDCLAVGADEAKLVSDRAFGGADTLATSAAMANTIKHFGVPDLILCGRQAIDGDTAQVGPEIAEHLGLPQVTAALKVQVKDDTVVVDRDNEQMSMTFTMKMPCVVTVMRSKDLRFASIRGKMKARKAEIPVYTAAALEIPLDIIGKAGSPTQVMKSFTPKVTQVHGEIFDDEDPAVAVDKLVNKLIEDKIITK
T1 sequence (D2RIQ3 1-340 partner): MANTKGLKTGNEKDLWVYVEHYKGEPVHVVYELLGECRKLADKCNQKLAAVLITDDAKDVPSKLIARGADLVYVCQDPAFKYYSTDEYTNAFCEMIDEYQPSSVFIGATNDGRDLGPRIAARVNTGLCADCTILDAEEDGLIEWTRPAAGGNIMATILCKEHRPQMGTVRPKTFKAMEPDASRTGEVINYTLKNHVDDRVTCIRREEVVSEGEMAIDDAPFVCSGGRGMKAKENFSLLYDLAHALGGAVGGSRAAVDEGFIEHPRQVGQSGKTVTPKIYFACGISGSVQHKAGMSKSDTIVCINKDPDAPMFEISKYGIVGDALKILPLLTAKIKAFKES

[2] = target: T2, Bcd (butyryl-CoA dehydrogenase) (Acidaminococcus fermentans, UniProt D2RL84); assay: static titration, double-beam UV-visible difference absorbance at […] nm; assay type: binding
T2 construct: gene Acfer_1477; recombinant from E. coli, pET-11a, no tag told; homotetramer with one delta-FAD per subunit
T2 sequence (D2RL84 1-383): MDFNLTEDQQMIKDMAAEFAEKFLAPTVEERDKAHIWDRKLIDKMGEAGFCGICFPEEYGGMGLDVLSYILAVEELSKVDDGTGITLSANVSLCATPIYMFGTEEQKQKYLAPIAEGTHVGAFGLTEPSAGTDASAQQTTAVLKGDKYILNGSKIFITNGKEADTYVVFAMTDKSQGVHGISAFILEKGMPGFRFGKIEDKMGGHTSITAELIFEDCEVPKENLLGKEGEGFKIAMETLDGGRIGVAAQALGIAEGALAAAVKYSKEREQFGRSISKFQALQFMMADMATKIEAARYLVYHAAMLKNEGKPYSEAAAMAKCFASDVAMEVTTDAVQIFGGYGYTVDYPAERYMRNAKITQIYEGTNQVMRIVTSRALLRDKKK

Row | Kd [2] | SMILES | anaerobic stopped-flow, beta-FAD reduction and charge-transfer complex at 650 nm [1]
1 | – | NC(=O)C1=CN([C@@H]2O[C@H](COP(=O)(O)OP(=O)(O)OC[C@H]3O[C@@H](n4cnc5c(N)ncnc54)[C@H](O)[C@@H]3O)[C@@H](O)[C@H]2O)C=CC1 [NADH] | mixing EtfAB with a stoichiometric amount NADH resulted in a rapid reduction of β-FAD
2 | 95 ± 6 µM | C/C=C/C(=O)SCCNC(=O)CCNC(=O)[C@H](O)C(C)(C)COP(=O)(O)OP(=O)(O)OC[C@H]1O[C@@H](n2cnc3c(N)ncnc32)[C@H](O)[C@@H]1OP(=O)(O)O [crotonyl-CoA] | –
